From US20180170941A1 (priority 2016, published 2018)

What follows are molecules tested against T1, α5β3γ2 GABAA receptors (Ltk cell membranes) (Homo sapiens, UniProt P18507+P31644) (assay: Binding activity of test compounds on GABAAR: inhibition of [3H]Ro15-1788 binding). Details: not given.
T1 construct: membranes
Procedure: Tissue culture and Membrane Preparation: The binding was performed on Ltk cells stably expressing GABAA receptors: α1β1γ2, α2β3γ2, α3β3γ2 and α5β3γ2 (provided by Merck Co., NJ, USA). Cells were seeded in 100 mm culture plates in DMEM/F12 medium containing 10% serum and antibiotics in 5% CO2 and allowed to grow for 1-2 days. GABAAR expression was then induced by dexamethasone as follows: 0.5 μM for 1 day for α5 containing and 2μM for 3 days for α1, α2 and α3 containing GABAARs. After induction, cells were collected by scraping into Dulbecco's Phosphate buffered saline (DPBS, pH 7.4, Invitrogen, Carlsbad, Calif., USA) and centrifuged at 150×g for 10 min. The pellet was washed twice by re-suspension and centrifugation. The cell pellets from at least 5 different preps were combined, suspended in the binding assay buffer (50 mM KH2P4; 1 mM EDTA; 0.2 M KCl, pH 7.4) and membranes prepared by sonication (3-5 times, 30 sec) using Branson Sonifier 150 (G.Heinmann, Germany). Protein content was determined using BCA assay (Bio-Rad Labs, Reinach, Switzerland) with Bovine Serum Albumin (Sigma Aldrich, St. Louis, Mo., USA) as the standard. Aliquots were prepared and stored at −20° C. for further use in binding assays.
Ligand Binding: Saturation binding curves were obtained by incubating membranes with increasing concentrations (0.01-8 nM) of [^3H]Ro15-1788 (Flumazepil, 75-85 Ci/mmol, PerkinElmer, MA, USA), with nonspecific binding measured in the presence of 10 μM diazepam.
All binding assays were performed for 1 h at 4° C. in assay buffer. The total assay volume was 0.5 ml containing 0.2 mg/ml protein for α5 and 0.4 mg/ml for α1, α2, and α3 containing GABAAR membranes. Incubations were terminated by filtration through GF/B filters using a 24-Cell Harvestor (Brandel, Gaithersburg, Md., USA) followed by 3 washes with ice-cold assay buffer. Filters were transferred to scintillation vials, 5 ml scintillation liquid added, vortex-mixed and kept in dark. Next day, radioactivity was obtained using a scintillation counter (Beckman Coulter, Brea, Calif., USA). All assays were performed in triplicate.
Data Analyses: Saturation and inhibition curves were obtained using GraphPad Prism software (GraphPad Software, Inc., CA, USA).

T1 sequence (P31644 32-462): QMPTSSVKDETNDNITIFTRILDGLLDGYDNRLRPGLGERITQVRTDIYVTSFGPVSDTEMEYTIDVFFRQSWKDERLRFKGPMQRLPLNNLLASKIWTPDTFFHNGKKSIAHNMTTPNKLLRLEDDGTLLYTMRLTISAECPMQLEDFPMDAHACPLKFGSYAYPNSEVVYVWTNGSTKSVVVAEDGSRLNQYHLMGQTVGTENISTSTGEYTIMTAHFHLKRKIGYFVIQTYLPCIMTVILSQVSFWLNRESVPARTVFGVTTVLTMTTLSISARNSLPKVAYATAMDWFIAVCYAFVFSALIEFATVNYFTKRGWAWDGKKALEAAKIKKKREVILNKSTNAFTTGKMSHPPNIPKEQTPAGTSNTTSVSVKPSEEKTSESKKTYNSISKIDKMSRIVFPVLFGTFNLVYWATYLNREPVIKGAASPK
T1 sequence (P28472 26-473 partner): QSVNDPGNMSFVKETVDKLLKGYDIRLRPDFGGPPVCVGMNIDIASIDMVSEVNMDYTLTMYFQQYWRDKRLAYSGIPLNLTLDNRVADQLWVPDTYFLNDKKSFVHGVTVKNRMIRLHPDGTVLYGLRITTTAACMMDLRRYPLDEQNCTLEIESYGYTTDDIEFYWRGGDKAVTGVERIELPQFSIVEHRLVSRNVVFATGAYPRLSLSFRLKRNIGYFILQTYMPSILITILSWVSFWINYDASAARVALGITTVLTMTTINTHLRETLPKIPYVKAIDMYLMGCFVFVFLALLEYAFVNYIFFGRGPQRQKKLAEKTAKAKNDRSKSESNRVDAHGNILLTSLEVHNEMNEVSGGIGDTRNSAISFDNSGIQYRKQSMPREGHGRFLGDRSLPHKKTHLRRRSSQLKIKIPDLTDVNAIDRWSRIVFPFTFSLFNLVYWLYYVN
T1 sequence (P18507 40-475): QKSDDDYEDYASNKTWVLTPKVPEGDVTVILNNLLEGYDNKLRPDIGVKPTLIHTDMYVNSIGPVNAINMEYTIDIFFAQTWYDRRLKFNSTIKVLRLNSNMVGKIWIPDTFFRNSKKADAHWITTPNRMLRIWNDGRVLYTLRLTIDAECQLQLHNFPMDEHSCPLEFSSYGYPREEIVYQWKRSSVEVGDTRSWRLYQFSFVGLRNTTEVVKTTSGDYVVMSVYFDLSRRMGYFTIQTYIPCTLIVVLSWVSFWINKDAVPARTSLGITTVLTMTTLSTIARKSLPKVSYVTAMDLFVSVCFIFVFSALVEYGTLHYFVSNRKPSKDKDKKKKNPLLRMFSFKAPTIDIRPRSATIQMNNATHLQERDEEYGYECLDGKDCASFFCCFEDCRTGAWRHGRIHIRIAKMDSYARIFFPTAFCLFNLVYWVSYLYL

| SMILES | Ki |
| --- | --- |
| COc1ccc2c(c1)-c1nnc(COc3ccccc3C(F)(F)F)n1Cc1c(C#N)ncn1-2 [Compound 193] | > 1000 nM |
| CC#Cc1nc(C)n2c1Cn1c(COC(C)C)nnc1-c1cc(Cl)ccc1-2 [Compound 306] | > 1000 nM |

Same assay, conditions: GABA α5 Binding Ki Values, inhibition of [3H]Ro15-1788 binding; reported as ranges

| SMILES | Ki |
| --- | --- |
| CC(C)OCc1nnc2n1Cc1c(C3=N[C@@H](c4ccccc4)CO3)ncn1-c1ccc(Cl)cc1-2 [Compound 270] | < 100 nM |
| C#Cc1nc(C)n2c1Cn1c(COC(C)C)nnc1-c1cc(Cl)ccc1-2 [Compound 305] | 100 to 1000 nM |
| COCc1nnc2n1Cc1c(C3=NC(C)(C)CO3)ncn1-c1ccc(Cl)cc1-2 [Compound 297] | 100 to 1000 nM |
| COc1ccc2c(c1)-n1nncc1Cc1c(C3=N[C@H](C)CO3)ncn1-2 [Compound 291] | < 100 nM |
| COCc1nnc2n1Cc1c(-c3nc(C(C)C)no3)ncn1-c1ccc(OC)cc1-2 [Compound 130] | < 100 nM |
| COc1ccc2c(c1)-n1nnc(C)c1Cc1c(-c3nc(C(C)C)no3)ncn1-2 [Compound 277] | < 100 nM |
| C#Cc1ncn2c1Cn1c(COc3ccccc3)nnc1-c1cc(Cl)ccc1-2 [Compound 205] | < 100 nM |
| Cc1nnn2c1Cc1c(-c3noc(C(F)(F)F)n3)ncn1-c1ccc(F)cc1-2 [Compound 150] | < 100 nM |
| CC#Cc1ncn2c1Cc1cnnn1-c1cc(OC)ccc1-2 [Compound 410] | < 100 nM |
| CCOC(=O)c1ncn2c1Cc1c(Cc3ccccc3)nnn1-c1cc(OC)ccc1-2 [Compound 4] | < 100 nM |
| CNC(=O)c1nnn2c1Cc1c(Br)ncn1-c1ccc(OC)cc1-2 [Compound 247] | 100 to 1000 nM |
| COCc1nnc2n1Cc1c(C3=N[C@@H](c4ccccc4OC)CO3)ncn1-c1ccc(Cl)cc1-2 [Compound 331] | < 100 nM |
| CC#Cc1ncn2c1Cn1c(COCc3ccccc3)nnc1-c1cc(Cl)ccc1-2 [Compound 352] | 100 to 1000 nM |
| COc1ccc2c(c1)-n1nnc(COc3ccccc3F)c1Cc1c(C#N)ncn1-2 [Compound 223] | < 100 nM |
| Cc1cc(-c2ncn3c2Cc2c(C)nnn2-c2cc(F)ccc2-3)ccn1 [Compound 154] | > 1000 nM |
| COc1ccc2c(c1)-n1nnc(Cc3ccccc3Cl)c1Cc1c(C#N)ncn1-2 [Compound 208] | < 100 nM |
| Cc1nnn2c1Cc1c(C3=N[C@@H](c4ccccc4)CO3)ncn1-c1ccc(Cl)cc1-2 [Compound 376] | 100 to 1000 nM |
| CCOC(=O)c1ncn2c1Cc1c(Cc3ccccc3)nnn1-c1cc(F)ccc1-2 [Compound 6] | < 100 nM |
| COCc1nnc2n1Cc1c(C#CCc3cccc(F)c3)ncn1-c1ccc(Cl)cc1-2 [Compound 421] | < 100 nM |
| CCOCc1nnc2n1Cc1c(C#Cc3ccccc3C)ncn1-c1ccc(Cl)cc1-2 [Compound 311] | < 100 nM |

| SMILES | Ki |
| --- | --- |
| O=C(C#Cc1ncn2c1Cc1cnnn1-c1cc(Cl)ccc1-2)c1ccccc1 [Compound 448] | < 100 nM |
| COc1ccc2c(c1)-n1nnc(C)c1Cc1c(-c3nc(C)no3)ncn1-2 [Compound 167] | < 100 nM |
| COc1ccc2c(c1)-n1nncc1Cc1c(C#CC(C)C)ncn1-2 [Compound 424] | < 100 nM |
| CC(C)c1nc(-c2ncn3c2Cc2c(Cc4ccc(F)cc4)nnn2-c2ccc(F)cc2-3)no1 [Compound 231] | > 1000 nM |
| Cc1ncn2c1Cc1c(C)nnn1-c1cc(F)ccc1-2 [Compound 135] | > 1000 nM |
| COc1ccc2c(c1)-n1nncc1Cc1c(C#Cc3ccccc3F)ncn1-2 [Compound 411] | < 100 nM |
| COCc1nnc2n1Cc1c(C3=N[C@@H](c4ccc(Cl)cc4)CO3)ncn1-c1ccc(Cl)cc1-2 [Compound 334] | < 100 nM |
| C#Cc1ccc2c(c1)-c1nnc(COC)n1Cc1c(C3=N[C@H](C(C)C)CO3)ncn1-2 [Compound 284] | 100 to 1000 nM |
| COCc1nnc2n1Cc1c(-c3nc(C)no3)ncn1-c1ccc(Cl)cc1-2 [Compound 198] | < 100 nM |
| CCOC(=O)c1ncn2c1Cc1c(C)nnn1-c1ccccc1-2 [Compound 3] | < 100 nM |
| FC(F)(F)CC#Cc1ncn2c1Cc1cnnn1-c1cc(Cl)ccc1-2 [Compound 398] | < 100 nM |
| COc1ccc2c(c1)-n1nnc(COc3ccccc3)c1Cc1c(-c3noc(C)n3)ncn1-2 [Compound 182] | < 100 nM |
| CCOCc1nnc2n1Cc1c(C3=N[C@@H](c4ccccc4)CO3)ncn1-c1ccc(Cl)cc1-2 [Compound 275] | < 100 nM |
| COc1ccc2c(c1)-c1nnc(COc3ccccc3)n1Cc1c(C(=O)OCC(C)(C)C)ncn1-2 [Compound 119] | 100 to 1000 nM |
| CCOC(=O)c1ncn2c1Cn1c(COc3ccccc3)nnc1-c1cc(F)ccc1-2 [Compound 137] | < 100 nM |
| CCOC(=O)c1ncn2c1Cc1c(C)nnn1-c1cc(F)ccc1-2 [Compound 2] | < 100 nM |
| CC(C)OCc1nnc2n1Cc1c(C3=N[C@H](C)CO3)ncn1-c1ccc(Cl)cc1-2 [Compound 286] | 100 to 1000 nM |
| COc1ccc2c(c1)-n1nnc(Cc3cccc(Cl)c3)c1Cc1c(C#N)ncn1-2 [Compound 209] | < 100 nM |
| COCc1nnc2n1Cc1c(C3=N[C@@H](c4cccc(OC)c4)CO3)ncn1-c1ccc(Cl)cc1-2 [Compound 333] | < 100 nM |
| CCOC(=O)c1ncn2c1Cc1c(CN3CCOCC3)nnn1-c1cc(OC)ccc1-2 [Compound 49] | < 100 nM |

| SMILES | Ki |
| --- | --- |
| COCc1nnc2n1Cc1c(C3=N[C@@H](c4cccc(C(F)(F)F)c4)CO3)ncn1-c1ccc(Cl)cc1-2 [Compound 336] | 100 to 1000 nM |
| COCc1nnc2n1Cc1c(C3=N[C@@H](c4ccccc4)CO3)ncn1-c1ccc(Cl)cc1-2 [Compound 264] | < 100 nM |
| FC(F)=Cc1ncn2c1Cn1c(COc3ccccc3)nnc1-c1cc(Cl)ccc1-2 [Compound 199] | < 100 nM |
| C#Cc1ncn2c1Cn1c(COc3cccnc3)nnc1-c1cc(OC)ccc1-2 [Compound 241] | < 100 nM |
| CC(C)OCc1nnc2n1Cc1c(-c3ncco3)ncn1-c1ccc(Cl)cc1-2 [Compound 327] | < 100 nM |
| Cc1cc(-c2ncn3c2Cn2c(COCC(F)(F)F)nnc2-c2cc(Cl)ccc2-3)on1 [Compound 303] | 100 to 1000 nM |
| CC(C)c1nc(-c2ncn3c2Cn2c(COc4ccc(F)cc4)nnc2-c2cc(F)ccc2-3)no1 [Compound 189] | < 100 nM |
| COc1ccc2c(c1)-c1nnc(COc3cccc(F)c3)n1Cc1c(C#N)ncn1-2 [Compound 196] | < 100 nM |
| COc1cccc(C#Cc2ncn3c2Cc2cnnn2-c2cc(OC)ccc2-3)c1 [Compound 409] | < 100 nM |
| COCc1nnc2n1Cc1c(-c3cnco3)ncn1-c1ccc(Cl)cc1-2 [Compound 314] | 100 to 1000 nM |
| COCc1nnc2n1Cc1c(C3=NC[C@H](C)O3)ncn1-c1ccc(Cl)cc1-2 [Compound 295] | < 100 nM |
| CCOC(=O)c1ncn2c1Cc1c(Cc3ccccc3)nnn1-c1cc(C)ccc1-2 [Compound 101] | < 100 nM |
| COCc1nnc2n1Cc1c(-c3nc(C)no3)ncn1-c1ccc(-c3ccccc3)cc1-2 [Compound 462] | < 100 nM |
| Cc1nnn2c1Cc1c(Br)ncn1-c1ccc(F)cc1-2 [Compound 136] | 100 to 1000 nM |
| C#Cc1ncn2c1C(Cc1cccc(F)c1)(Cc1cccc(F)c1)c1cnnn1-c1cc(OC)ccc1-2 [Compound 450] | > 1000 nM |
| Cc1nnn2c1Cc1c(-c3cccnc3)ncn1-c1ccc(F)cc1-2 [Compound 140] | > 1000 nM |
| C#Cc1ncn2c1C(Cc1ccccc1F)c1cnnn1-c1cc(OC)ccc1-2 (stereo not drawn) [Compound 451] | < 100 nM |
| COc1ccc2c(c1)-n1nncc1Cc1c(C#Cc3ccccc3C)ncn1-2 [Compound 405] | < 100 nM |
